Laboratory results: US12139492B2 (Endotarget Inc., priority 2021, dated 2024)

Legend:
Type in all cases: cell-based
JeKo-1 cells = assay: Antiproliferative effect, MTS cell viability assay, JeKo-1 cells; conditions: Homo sapiens; JeKo-1 mantle cell lymphoma cells; read-out: IC50 (anti-proliferation) JeKO-1 cells
Summary of the method: (§1)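 MTS read-out, A490 of formazan from metabolically active cells; compound 0–10 μM (0, 0.001, 0.01, 0.1, 1, 10 μM), 72 h exposure.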

BTK = BTK (Homo sapiens, UniProt Q06187); assay: BTK degradation, DC50 and Dmax of Table 1 (cell line not given); set-up: endogenous in cells; conditions: for DC50: concentration giving 50% reduction of BTK expression level
Mino cells = assay: Antiproliferative effect, MTS cell viability assay, Mino cells; conditions: Homo sapiens, MINO, Mino mantle cell lymphoma cells; read-out: IC50 (anti-proliferation) Mino cells
Summary of the method: as §1

Chain of BTK (Q06187 whole entry): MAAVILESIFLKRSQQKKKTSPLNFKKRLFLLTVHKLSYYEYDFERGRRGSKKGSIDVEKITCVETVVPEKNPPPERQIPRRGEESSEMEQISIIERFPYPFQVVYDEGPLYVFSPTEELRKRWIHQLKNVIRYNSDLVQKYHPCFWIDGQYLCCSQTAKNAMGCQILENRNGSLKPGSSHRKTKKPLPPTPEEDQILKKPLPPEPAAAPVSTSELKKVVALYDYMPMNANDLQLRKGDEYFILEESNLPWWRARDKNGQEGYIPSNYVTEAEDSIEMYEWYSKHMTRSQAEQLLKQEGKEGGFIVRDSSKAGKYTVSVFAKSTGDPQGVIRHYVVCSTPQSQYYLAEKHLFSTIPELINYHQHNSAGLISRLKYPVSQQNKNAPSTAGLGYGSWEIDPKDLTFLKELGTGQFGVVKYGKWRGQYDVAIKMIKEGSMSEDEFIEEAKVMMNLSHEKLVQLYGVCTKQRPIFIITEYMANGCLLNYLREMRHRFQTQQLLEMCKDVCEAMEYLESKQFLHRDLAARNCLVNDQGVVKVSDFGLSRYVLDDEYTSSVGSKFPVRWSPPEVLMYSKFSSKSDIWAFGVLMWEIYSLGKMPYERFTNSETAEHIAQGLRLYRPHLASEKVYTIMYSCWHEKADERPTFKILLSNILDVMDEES

Dmax (BTK)	DC50 (BTK)	Structure (SMILES)	IC50 (JeKo-1 cells)	IC50 (Mino cells)
> 75%	> 50 nM	Nc1ncnc2c1c(-c1ccc(Oc3ccccc3)cc1)nn2[C@@H]1CCCN(C(=O)N2CCC(CCCC3CCN(c4ccc5c(c4)C(=O)N(C4CCC(=O)NC4=O)C5=O)CC3)CC2)C1 (stereo partly drawn) [Compound 113, 5-(4-(3-(1-((R)-3-(4-amino-3-(4-phenoxyphenyl)-1H-pyrazolo[3,4-d]pyrimidin-1-yl)piperidine-1-carbonyl)piperidin-4-yl)propyl)piperidin-1-yl)-2-(2,6-dioxopiperidin-3-yl)isoindoline-1,3-dione]	> 10000 nM	1000 to 10000 nM
> 75%	> 50 nM	Nc1ncnc2c1c(-c1ccc(Oc3ccccc3)cc1)nn2C1CCN(C(=O)N2CCC(CCCN3CCN(c4ccc5c(c4)CN(C4CCC(=O)NC4=O)C5=O)CC3)CC2)CC1 (centres unmarked) [Compound 118, 3-(5-(4-(3-(1-(4-(4-amino-3-(4-phenoxyphenyl)-1H-pyrazolo[3,4-d]pyrimidin-1-yl)piperidine-1-carbonyl)piperidin-4-yl)propyl)piperazin-1-yl)-1-oxoisoindolin-2-yl)piperidine-2,6-dione]	1000 to 10000 nM	> 10000 nM
> 90%	10 to 50 nM	Nc1ncnc2c1c(-c1ccc(Oc3ccccc3)cc1)nn2C1CCN(CCOCCN2CCN(c3ccc4c(c3)CN(C3CCC(=O)NC3=O)C4=O)CC2)CC1 (centres unmarked) [Compound 6, 3-(5-(4-(2-(2-(4-(4-amino-3-(4-phenoxyphenyl)-1H-pyrazolo[3,4-d]pyrimidin-1-yl)piperidin-1-yl)ethoxy)ethyl)piperazin-1-yl)-1-oxoisoindolin-2-yl)piperidine-2,6-dione]	< 1000 nM	< 1000 nM
> 75%	10 to 50 nM	Nc1ncnc2c1c(-c1ccc(Oc3ccccc3)cc1)nn2[C@@H]1CCCN(C2CCN(C(=O)N3CCC(CCC4CCN(c5ccc6c(c5)CN(C5CCC(=O)NC5=O)C6=O)CC4)CC3)CC2)C1 (stereo partly drawn) [Compound 186, 3-(5-(4-(2-(1-((R)-3-(4-amino-3-(4-phenoxyphenyl)-1H-pyrazolo[3,4-d]pyrimidin-1-yl)-[1,4′-bipiperidine]-1′-carbonyl)piperidin-4-yl)ethyl)piperidin-1-yl)-1-oxoisoindolin-2-yl)piperidine-2,6-dione]	1000 to 10000 nM	1000 to 10000 nM
> 50%	> 50 nM	Nc1ncnc2c1c(-c1ccc(Oc3ccccc3)cc1)nn2[C@@H]1CCCN(C(=O)N2CCC(c3ccc4c(c3)C(=O)N(C3CCC(=O)NC3=O)C4=O)CC2)C1 (stereo partly drawn) [Compound 47, 5-(1-((R)-3-(4-amino-3-(4-phenoxyphenyl)-1H-pyrazolo[3,4-d]pyrimidin-1-yl)piperidine-1-carbonyl)piperidin-4-yl)-2-(2,6-dioxopiperidin-3-yl)isoindoline-1,3-dione]	> 10000 nM	> 10000 nM
> 50%	> 50 nM	Nc1ncnc2c1c(-c1ccc(Oc3ccccc3)cc1)nn2C1CCN(C(=O)N2CCN(c3ccc4c(c3)CN(C3CCC(=O)NC3=O)C4=O)CC2)CC1 (centres unmarked) [Compound 76, 3-(5-(4-(4-(4-amino-3-(4-phenoxyphenyl)-1H-pyrazolo[3,4-d]pyrimidin-1-yl)piperidine-1-carbonyl)piperazin-1-yl)-1-oxoisoindolin-2-yl)piperidine-2,6-dione]	> 10000 nM	> 10000 nM
> 90%	< 10 nM	Nc1ncnc2c1c(-c1ccc(Oc3ccccc3)cc1)nn2[C@@H]1CCCN(C(=O)N2CCC(CC3CCN(c4ccc5c(c4)CN(C4CCC(=O)NC4=O)C5=O)CC3)CC2)C1 (stereo partly drawn) [Compound 60, 3-(5-(4-((1-((R)-3-(4-amino-3-(4-phenoxyphenyl)-1H-pyrazolo[3,4-d]pyrimidin-1-yl)piperidine-1-carbonyl)piperidin-4-yl)methyl)piperidin-1-yl)-1-oxoisoindolin-2-yl)piperidine-2,6-dione]	< 1000 nM	< 1000 nM
> 90%	< 10 nM	Nc1ncnc2c1c(-c1ccc(Oc3ccccc3)cc1)nn2[C@@H]1CCCN(C(=O)N2CCC(N3CCC(c4ccc5c(c4)C(=O)N(C4CCC(=O)NC4=O)C5=O)CC3)CC2)C1 (stereo partly drawn) [Compound 53, 5-(1′-((R)-3-(4-amino-3-(4-phenoxyphenyl)-1H-pyrazolo[3,4-d]pyrimidin-1-yl)piperidine-1-carbonyl)-[1,4′-bipiperidin]-4-yl)-2-(2,6-dioxopiperidin-3-yl)isoindoline-1,3-dione]	1000 to 10000 nM	< 1000 nM
> 90%	10 to 50 nM	Nc1ncnc2c1c(-c1ccc(Oc3ccccc3)cc1)nn2C1CCN(CCOCCN2CCN(c3ccc4c(c3)C(=O)N(C3CCC(=O)NC3=O)C4=O)CC2)CC1 (centres unmarked) [Compound 5, 5-(4-(2-(2-(4-(4-amino-3-(4-phenoxyphenyl)-1H-pyrazolo[3,4-d]pyrimidin-1-yl)piperidin-1-yl)ethoxy)ethyl)piperazin-1-yl)-2-(2,6-dioxopiperidin-3-yl)isoindoline-1,3-dione]	1000 to 10000 nM	1000 to 10000 nM
> 75%	> 50 nM	Nc1ncnc2c1c(-c1ccc(Oc3ccccc3)cc1)nn2[C@@H]1CCCN(C2CCN(C(=O)N3CCN(CCCN4CCN(c5ccc6c(c5)CN(C5CCC(=O)NC5=O)C6=O)CC4)CC3)CC2)C1 (stereo partly drawn) [Compound 188, 3-(5-(4-(3-(4-((R)-3-(4-amino-3-(4-phenoxyphenyl)-1H-pyrazolo[3,4-d]pyrimidin-1-yl)-[1,4′-bipiperidine]-1′-carbonyl)piperazin-1-yl)propyl)piperazin-1-yl)-1-oxoisoindolin-2-yl)piperidine-2,6-dione]	1000 to 10000 nM	1000 to 10000 nM
> 90%	10 to 50 nM	Nc1ncnc2c1c(-c1ccc(Oc3ccccc3)cc1)nn2[C@@H]1CCCN(C(=O)N2CCN(CC3CCN(c4ccc5c(c4)C(=O)N(C4CCC(=O)NC4=O)C5=O)CC3)CC2)C1 (stereo partly drawn) [Compound 57, 5-(4-((4-((R)-3-(4-amino-3-(4-phenoxyphenyl)-1H-pyrazolo[3,4-d]pyrimidin-1-yl)piperidine-1-carbonyl)piperazin-1-yl)methyl)piperidin-1-yl)-2-(2,6-dioxopiperidin-3-yl)isoindoline-1,3-dione]	1000 to 10000 nM	1000 to 10000 nM
> 50%	> 50 nM	Nc1ncnc2c1c(-c1ccc(Oc3ccccc3)cc1)nn2[C@@H]1CCCN(C2CCN(CCCC3CCN(c4ccc5c(c4)CN(C4CCC(=O)NC4=O)C5=O)CC3)CC2)C1 (stereo partly drawn) [Compound 156, 3-(5-(4-(3-((R)-3-(4-amino-3-(4-phenoxyphenyl)-1H-pyrazolo[3,4-d]pyrimidin-1-yl)-[1,4′-bipiperidin]-1′-yl)propyl)piperidin-1-yl)-1-oxoisoindolin-2-yl)piperidine-2,6-dione]	> 10000 nM	> 10000 nM
> 90%	< 10 nM	Nc1ncnc2c1c(-c1ccc(Oc3ccccc3)cc1)nn2[C@@H]1CCCN(C(=O)N2CCC(N3CCC(c4ccc5c(c4)CN(C4CCC(=O)NC4=O)C5=O)CC3)CC2)C1 (stereo partly drawn) [Compound 54, 3-(5-(1′-((R)-3-(4-amino-3-(4-phenoxyphenyl)-1H-pyrazolo[3,4-d]pyrimidin-1-yl)piperidine-1-carbonyl)-[1,4′-bipiperidin]-4-yl)-1-oxoisoindolin-2-yl)piperidine-2,6-dione]	< 1000 nM	< 1000 nM
> 75%	> 50 nM	Nc1ncnc2c1c(-c1ccc(Oc3ccccc3)cc1)nn2C1CCCN(CCOCCC2CCN(c3ccc4c(c3)C(=O)N(C3CCC(=O)NC3=O)C4=O)CC2)C1 (centres unmarked) [Compound 23, 5-(4-(2-(2-(3-(4-amino-3-(4-phenoxyphenyl)-1H-pyrazolo[3,4-d]pyrimidin-1-yl)piperidin-1-yl)ethoxy)ethyl)piperidin-1-yl)-2-(2,6-dioxopiperidin-3-yl)isoindoline-1,3-dione]	1000 to 10000 nM	1000 to 10000 nM
> 75%	10 to 50 nM	Nc1ncnc2c1c(-c1ccc(Oc3ccccc3)cc1)nn2C1CCCN(CCOCCN2CCN(c3ccc4c(c3)C(=O)N(C3CCC(=O)NC3=O)C4=O)CC2)C1 (centres unmarked) [Compound 7, 5-(4-(2-(2-(3-(4-amino-3-(4-phenoxyphenyl)-1H-pyrazolo[3,4-d]pyrimidin-1-yl)piperidin-1-yl)ethoxy)ethyl)piperazin-1-yl)-2-(2,6-dioxopiperidin-3-yl)isoindoline-1,3-dione]	1000 to 10000 nM	1000 to 10000 nM
> 90%	10 to 50 nM	Nc1ncnc2c1c(-c1ccc(Oc3ccccc3)cc1)nn2C1CCN(C(=O)N2CCN(CCC3CCN(c4ccc5c(c4)CN(C4CCC(=O)NC4=O)C5=O)CC3)CC2)CC1 (centres unmarked) [Compound 98, 3-(5-(4-(2-(4-(4-(4-amino-3-(4-phenoxyphenyl)-1H-pyrazolo[3,4-d]pyrimidin-1-yl)piperidine-1-carbonyl)piperazin-1-yl)ethyl)piperidin-1-yl)-1-oxoisoindolin-2-yl)piperidine-2,6-dione]	1000 to 10000 nM	1000 to 10000 nM
> 75%	> 50 nM	Nc1ncnc2c1c(-c1ccc(Oc3ccccc3)cc1)nn2[C@@H]1CCCN(C(=O)N2CCC(CCCN3CCC(c4ccc5c(c4)C(=O)N(C4CCC(=O)NC4=O)C5=O)CC3)CC2)C1 (stereo partly drawn) [Compound 115, 5-(1-(3-(1-((R)-3-(4-amino-3-(4-phenoxyphenyl)-1H-pyrazolo[3,4-d]pyrimidin-1-yl)piperidine-1-carbonyl)piperidin-4-yl)propyl)piperidin-4-yl)-2-(2,6-dioxopiperidin-3-yl)isoindoline-1,3-dione]	> 10000 nM	1000 to 10000 nM
